Experimental data taken from EP0353777A2, “New 2,5-disubstituted tetrahydrofuran derivatives” (J. URIACH & CIA. S.A., priority 1988, dated 1990).
Read-outs that look alike come from different tables or passages of the source.

What was measured:
[1] = test system: hypotension induced by PAF; assay: Test 2: Inhibition of the hypotensive effect induced by PAF in normotense rats; type: in vivo; settings: anesthetized male Sprage Dawley rats; compounds given through the femoral vein 3 min. before PAF (0.5 mcg/Kg, i.v.); average arterial pressure
Method: Test 2 - Inhibition of the hypotensive effect induced by PAF in normotense rats. Male Sprage Dawley rats, of 180-220 g of weight, anesthetized with sodium pentobarbital (50 mg/Kg, i.p. 1 mL/100 g) have been used. In order to measure the average arterial pressure, a polyethylene catheter is introduced into the carotid artery. The arterial pressure is recorded with the help of a transducer connected with a […] Beckman polygraph. […]

[2] = test system: platelet aggregation induced by PAF; assay: Test 1: Inhibition of platelet aggregation induced by PAF; type: cell-based; settings: rabbit platelet rich plasma, aggregation induced by PAF (C₁₈) 16 nM final, Born nephelometric technique, read-out: IC₅₀
Method: Test 1: Inhibition of platelet aggregation induced by PAF.
The blood is obtained by cardiac puncture of male New Zealand albino rabbits (between 2 and 2.5 Kg of weight) and coagulatlon is prevented by adding 1 part of 3.16% sodium citrate dihydrate in 9 parts of blood. The platelet rich plasma (PRP) is prepared by blood centrifugation at 250xg for 10 min. at 4°C and it is diluted with platelet poor plasma (PPP) obtained by additional centrifugation at 3000xg for 10 min. The amount of platelets is adjusted to […]. The platelet aggregation induced by PAF (C₁₈, prepared in our laboratory) (16 nM, final) is determined by the Born nephelometric technique (J. Physiol., 1962 162, 67) using a aggregometer Chrono-log 500. The activities of the inhibitors are expressed as IC₅₀, that is to say the concentration of the drug needed to inhibit the platelet aggregation in a 50%.

SMILES | IC50 ([2]; Oryctolagus cuniculus) [nM] | IC50 [2] [nM] | CI₅₀ [1]
CCCCCCCCCCCCCCCCCC1CCC(COC(=O)N(Cc2cccc[n+]2CC)C(=O)OCC)O1 (mixture of isomers) [Compound 7, (±)-cis,trans-2-[N-ethoxycarbonyl-N-[((5-heptadecyl-2-tetrahydrofuranyl)methoxy)carbonyl]aminomethyl]-1-ethylpyridinium iodide] | 130 |  | 0,34 mg/Kg,i.v.
CCCCCCCCCCCCCCCC1CCC(COC(=O)N(Cc2cccc[n+]2CC)C(C)=O)O1 (mixture of isomers) [Compound 11, (±)-cis,trans-2-[N-acetyl-N-[((5-pentadecyl-2-tetrahydrofuranyl)methoxy)carbonyl]aminomethyl]-1-ethylpyridinium iodide] | 95 |  | 0,15 mg/Kg,i.v.
CCCCCCCCCCCCCCCCCNC(=O)OCC1CCC(COC(=O)N(Cc2cccc[n+]2CC)C(C)=O)O1 (mixture of isomers) [Compound 16, (±)-cis,trans-2-[N-acetyl-N-[((5-(((N-heptadecylcarbamoyl)oxy)methyl)-2-tetrahydrofuranyl)methoxy)carbonyl]aminomethyl] -1-ethylpiridinium iodide] | 40 |  | 0,064 mg/Kg,i.v.
CCCCCCCCCCCCCCCNC(=O)OCC1CCC(COC(=O)N(Cc2cccc[n+]2CC)C(C)=O)O1 (mixture of isomers) [Compound 19, (±)-cis,trans-2-[N-acetyl-N-[((5-(((N-pentadecylcarbamoyl)oxy)methyl)-2-tetrahydrofuranyl)methoxy)carbonyl]aminomethyl] -1-ethylpiridinium iodide] | 54 |  | 0,098 mg/Kg,i.v.
CCCCCCCCCCCCCCCCOCC1CCC(COC(=O)N(Cc2cccc[n+]2CC)C(C)=O)O1 (mixture of isomers) [Compound 25, (±)-cis,trans-2-[N-acetyl-N-[((5-((hexadecyloxy)methyl)-2-tetrahydrofuranyl)methoxy)carbonyl]aminomethyl]-1-ethylpyridinium iodide] | 74 |  | 0,036 mg/Kg,i.v.
CCCCCCCCCCCCCCCCC[C@@H]1CC[C@H](COC(=O)N(Cc2cccc[n+]2CC)C(C)=O)O1.[I-] (racemic) [Compound 3, (±)-cis,trans-2-[N-acetyl-N-[((5-heptadecyl-2-tetrahydrofuranyl)methoxy)carbonyl]aminomethyl]-1-ethylpiridinium iodide] |  | 71 | 0,15 mg/Kg,i.v.

The next lines start with results.

IC50 ([2]; Oryctolagus cuniculus) [nM] | IC50 [2] [nM] | SMILES | CI₅₀ [1]
1100 |  | CCCCCCCCCCCCCCCCCC1CCC(COC(=O)N(Cc2cccc[n+]2C)C(C)=O)O1 (mixture of isomers) [Compound 5, (±)-cis,trans-2-[N-acetyl-N-[((5-heptadecyl-2-tetrahydrofuranyl)methoxy)carbonyl]aminomethyl]-1-methylpiridinium iodide] | 0,8 mg/Kg,i.v.
3100 |  | CCCCCCCCCCCCCCCC1CCC(COC(=O)CCCCC[n+]2ccsc2)O1 (mixture of isomers) [Compound 12, (±)-cis,trans-3-[6-[(5-pentadecyl-2-tetrahydrofuranyl)methoxy]-6-oxohexyl] tiazolium 4-methylbenzenesulfonate] | 
1300 |  | CCCCCCCCCCCCCCCC1CCC(COCCCCCC[n+]2ccsc2)O1 (mixture of isomers) [Compound 13, (±)-cis,trans-3-[6-[(5-pentadecyl-2-tetrahydrofuranyl)methoxy]hexyl]tiazolium 4-methylbenzenesulfonate] | 
 | 190 | CCCCCCCCCCCCCCCCC[C@@H]1CC[C@H](COC(=O)N(Cc2cccc[n+]2CC)C(C)=O)O1.[Cl-] (racemic) [Compound 4, (±)-cis,trans-2-[N-acetyl-N-[((5-heptadecyl-2-tetrahydrofuranyl)methoxy)carbonyl]aminomethyl]-1-ethylpiridinium chloride] | 0,19 mg/Kg,i.v.
